We go through eleven compounds from ChEMBL document CHEMBL1201862, “PubChem BioAssay data set” (2004).

Test in all cases: NCI tumour cell line growth inhibition, 48 h
Test [1] concerns NCI-H226.
The subject of test [2] is UACC-62.
Test [3] concerns DU-145.
In test [4] the test system is NCI-H522.
In test [5] the test system is SW-620.
Test [6] deals with HCT-15.
In test [7] the test system is PC-3.
Test [8] deals with UACC-257.
In test [9] the test system is COLO 205.
Test [10] deals with HCT-116.
The test system of test [11] is OVCAR-3.
The subject of test [12] is MDA-MB-435.
Test [13] relates to A498.
Test [14] relates to SK-OV-3.
Test [15] concerns CCRF-CEM.
Test [16] relates to RXF 393.
For test [17], the system named is TK-10.
Test [18] concerns Hs-578T.
The test system of test [19] is 786-0.
Test [20] has as its system A549.

The structures appear in SMILES notation.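 96-well plates; 48 h exposure; 5 concentrations. Endpoints by linear interpolation between flanking doses. Not reached: highest tested concentration assigned. GI50 is the concentration that inhibits growth by half.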 Calls of active or inactive are those of the source. Cut-off read from the data, not from the text of the source: active = GI50 up to about 1.1 µM and inactive = higher. A value given as a limit tells only on which side of the number the result lay.

Consider `CCN(CC)C(=S)SC1CCOP(=O)(N(CCCl)CCCl)N1C` (configuration not stated), for which the GI50 is 48.3 µM (inactive) in test [1]; 1.83 µM (inactive) in test [2]; > 100 µM (inactive) in [3]; 0.43 µM (active) in test [4]; 1.71 µM (inactive) in [5]; 28.2 µM in test [6]. Besides, the GI50 is > 100 µM (inactive) in test [7]; > 40.9 µM (inactive) in [8]; 0.553 µM (active) in test [9]; 0.412 µM (active) in test [10]; > 100 µM (inactive) in [11]; > 100 µM (inactive) in [12]. The GI50 in [13] was 44.9 µM (inactive); in test [14], > 80.2 µM (inactive); in test [15], 0.109 µM (active); in test [16], 29.9 µM (inactive); in test [17], > 71.1 µM (inactive); in [18], > 100 µM (inactive). In addition, the GI50 in test [19] is 41.2 µM (inactive).

In the case of `Fc1ccc(NCn2nc(COc3ccccc3Cl)n(/N=C/c3ccc(-c4ccc(Cl)cc4Cl)o3)c2=S)cc1Cl`, the GI50 is 83.8 µM (inactive) in test [1]; 47.6 µM (inactive) in test [3]; 36.7 µM (inactive) in test [4]; 36.1 µM (inactive) in test [5]; 26.7 µM in test [6]; 38.5 µM (inactive) in test [7]. The GI50 in test [8] was 41.5 µM (inactive); in [10] it was 28.4 µM (inactive); in test [11], 37.9 µM (inactive); in test [12], 41.4 µM (inactive); in [13], 16.1 µM (inactive); in test [14], 46.6 µM (inactive). The GI50 was 25.5 µM (inactive) in test [15]; 21.5 µM (inactive) in test [16]; 31.8 µM (inactive) in [17]; 82.6 µM (inactive) in test [18]; 27 µM (inactive) in test [19].

As for `CCOC(=O)/C=C/[C@H](O[Si](c1ccccc1)(c1ccccc1)c1ccccc1)C(C)(C)C`, the GI50 in test [1] is > 31.6 µM (inactive); in [2], > 31.6 µM (inactive); in test [3] it was > 31.6 µM (inactive); in test [4], > 31.5 µM (inactive); in test [5], > 31.6 µM (inactive); in test [6], greater than 31.6 µM. The GI50 in test [7] is 10.5 µM (inactive); in test [20] it was 23.3 µM (inactive); in test [8], 11.1 µM (inactive); in test [9], > 31.6 µM (inactive); in test [10], 22.5 µM (inactive); in test [11], > 31.6 µM (inactive). Besides, the GI50 in test [12] is > 31.6 µM (inactive); in test [13], > 31.6 µM (inactive); in [14], > 31.6 µM (inactive); in [15] it was 15.8 µM (inactive); in test [16] it was 15.5 µM (inactive); in test [17] it was > 31.6 µM (inactive). In addition, the GI50 is 20.5 µM (inactive) in [18] and > 31.6 µM (inactive) in test [19].

Consider `NC1=NN(c2ccccc2)C2(c3ccncc3C(=O)O)C1C(N)=NN2c1ccccc1` (configuration not stated), for which the GI50 in test [1] is > 100 µM (inactive); in test [2], > 100 µM (inactive); in test [3], > 100 µM (inactive); in test [4], > 100 µM (inactive); in [5] it was > 100 µM (inactive); in test [6], greater than 100 µM. Further, the GI50 in test [7], in [20], in [8], in test [9], in test [10] and in test [11] was > 100 µM (inactive) in each case. Also, the GI50 in test [12], in test [13], in test [14], in [15], in test [16] and in test [18] was > 100 µM (inactive) in each case. Moreover, the GI50 in test [19] is > 100 µM (inactive).

Turning to `C[N+]12C=CC=C1C(N1CCCC1)c1scc(-c3ccc(F)cc3)c12` (configuration not stated), the GI50 in test [1] was 23.5 µM (inactive); in [2] it was 35.4 µM (inactive); in [3] it was 81.7 µM (inactive); in test [4], 17.6 µM (inactive); in test [5], 68.2 µM (inactive); in test [7], 27.1 µM (inactive). The GI50 in test [20] was 56 µM (inactive); in [9] it was 18.7 µM (inactive); in test [10], 46.2 µM (inactive); in test [11], 14.6 µM (inactive); in test [12] it was 30.6 µM (inactive); in test [13], 43.3 µM (inactive). Moreover, the GI50 in [14] was > 100 µM (inactive); in [15] it was 1.89 µM (inactive); in test [16], 24.5 µM (inactive); in [18], 21.5 µM (inactive); in test [19] it was 47.2 µM (inactive).

Regarding `Cc1ccc(NC(=O)CSC(N)=O)cc1C`, the GI50 was > 100 µM (inactive) in [1]; 93.8 µM (inactive) in test [2]; > 100 µM (inactive) in [3]; 89.9 µM (inactive) in test [4]; > 100 µM (inactive) in test [5]; greater than 100 µM in test [6]. The GI50 in test [7], in [20], in [8], in test [9], in test [10] and in [11] was > 100 µM (inactive) throughout. Besides, the GI50 was > 100 µM (inactive) in [12]; 98.4 µM (inactive) in [13]; > 100 µM (inactive) in test [15]; > 100 µM (inactive) in test [16]; > 100 µM (inactive) in test [17]; > 100 µM (inactive) in test [18]. Besides, in test [19], the GI50 was 48.2 µM (inactive).

With `OCC1OC(Oc2cc(O)cc(/C=C\c3ccc(O)cc3)c2)C(O)C(O)C1O` (configuration not stated), the GI50 in test [1] was > 100 µM (inactive); in test [2] it was > 100 µM (inactive); in test [3], > 100 µM (inactive); in test [4], > 100 µM (inactive); in [5] it was > 100 µM (inactive); in test [6], greater than 100 µM. For the same compound, the GI50 in test [7], in test [20], in test [8], in test [10], in test [11] and in test [12] was > 100 µM (inactive) each time. For the same compound, the GI50 in test [13], in test [14], in [15], in [16], in test [17] and in test [18] was > 100 µM (inactive) throughout. In addition, the GI50 in [19] was > 100 µM (inactive).

As for `COC(=O)C1=NN2c3ccccc3C(=O)OCCC2(C)C1` (configuration not stated), the GI50 is > 100 µM (inactive) in [1]; > 100 µM (inactive) in test [2]; > 100 µM (inactive) in test [3]; > 100 µM (inactive) in [4]; > 100 µM (inactive) in [5]; greater than 100 µM in test [6]. For the same compound, the GI50 in [7], in test [20], in [9], in test [10], in test [11] and in test [12] was > 100 µM (inactive) in each case. For the same compound, the GI50 in [13], in [14], in [15], in [16], in test [17] and in [18] was > 100 µM (inactive) in each case. Moreover, in [19], the GI50 was > 100 µM (inactive).

For the compound `CCN(CC)CC(O)c1ccc2ccc3ccccc3c2c1` (configuration not stated), the GI50 in [1] was 13.6 µM (inactive); in test [2], 15.3 µM (inactive); in [3], 19 µM (inactive); in [4] it was 15.6 µM (inactive); in test [5], 18.5 µM (inactive); in [6] it was 16.3 µM. Besides, the GI50 is 15.8 µM (inactive) in test [7]; 15.7 µM (inactive) in test [20]; 16.4 µM (inactive) in test [8]; 13.9 µM (inactive) in test [9]; 15.3 µM (inactive) in test [10]; 15.7 µM (inactive) in test [11]. Also, the GI50 in [12] was 16.3 µM (inactive); in [13] it was 12.6 µM (inactive); in test [14], 16 µM (inactive); in [15], 23.7 µM (inactive); in [16], 16.8 µM (inactive); in test [17], 15.8 µM (inactive). Also, the GI50 is 18.7 µM (inactive) in [18] and 12.9 µM (inactive) in [19].

For `O=C(/C=C/c1ccccc1)CCC1C(=O)c2ccccc2C1=O`, the GI50 in test [1] was > 100 µM (inactive); in test [2] it was > 100 µM (inactive); in [3] it was > 100 µM (inactive); in test [4] it was > 100 µM (inactive); in test [5], > 100 µM (inactive); in test [6] it was 42.6 µM. The GI50 was > 100 µM (inactive) in [7]; > 100 µM (inactive) in [20]; > 100 µM (inactive) in test [8]; 64.9 µM (inactive) in test [9]; > 100 µM (inactive) in [10]; > 100 µM (inactive) in [11]. Also, the GI50 in test [12], in [13], in test [14], in [15], in test [16] and in test [18] was > 100 µM (inactive) in each case. For the same compound, the GI50 in test [19] was > 100 µM (inactive).

Regarding `O=C(Nc1ncc([N+](=O)[O-])s1)c1ccccc1O` [TIZOXANIDE], the GI50 in test [1] was 7.55 µM (inactive); in test [2], 4.66 µM (inactive); in test [3], 21 µM (inactive); in [4], 3.13 µM (inactive); in test [5] it was 34.1 µM (inactive); in [6], 19.1 µM. The GI50 in [7] was 11.9 µM (inactive); in test [20] it was 19.3 µM (inactive); in test [8], 20.7 µM (inactive); in test [9], 15.2 µM (inactive); in test [10], 11.1 µM (inactive); in test [11], 6.84 µM (inactive). In addition, the GI50 is 22.6 µM (inactive) in test [12]; 8.75 µM (inactive) in [13]; 12.2 µM (inactive) in test [14]; 3.39 µM (inactive) in test [16]; 21.4 µM (inactive) in test [17]; 6.58 µM (inactive) in [18]. For the same compound, the GI50 in [19] is 24.4 µM (inactive).
